Patent US20090143441A1, “Combination therapies of Thiazolidinedione analogues” (priority 2006, published 2009)
“Also recorded” adds a separate entry of the source.

Columns and labels:
[1] = test system: normal male Sprague-Dawley rats with Medrol-induced hypertension; assay: Prevention of Medrol-induced hypertension, mean blood pressure by direct femoral arterial cannulation; format: in vivo; conditions: for Mean blood pressure, Fasted: after a 6 hour fast on day 8; for Mean blood pressure, Fasted / Mean blood pressure, Fed: daily dosing, Compound 1 40 mg/kg/day, Medrol 20 mg/kg/day, N=9, * p<0.05 less than Medrol-treated rats; for Mean blood pressure, Fed: fed conditions on day 7
Method: Hypertension was induced in normal male Sprague-Dawley rats by daily dosing with the glucocorticoid methylprednisolone (Medrol) for 8 days. Separate groups of rats received the vehicle (1% carboxymethylcellulose/0.01% Tween 20) by oral gavage and some of both the vehicle-treated and Medrol-treated rats also received daily doses of compound 1 as shown in Table C. Mean blood pressure was measured by direct femoral arterial cannulation under fed conditions on day 7 and after a 6 hour fast on day 8. The data are mean and (SEM) mean blood pressure obtained by direct cannulation. N=9; * p<0.05 less than blood pressure in Medrol-treated rats.

PPARγ = target: T1, PPARγ (Homo sapiens, UniProt P37231); assay: Commercial PPARγ binding assay (Invitrogen, PPAR-LBD/Fluormone PPAR Green complex); conditions: for PPARγ ligand binding (Fluormone displacement signal) / Activation of PPARγ: average (SEM) of three experiments in quadruplicate; for Binding to PPARγ (in words): summary of FIG. 1 and Table B
T1 construct: purchased Invitrogen Corporation, Carlsbad, Calif
T1 sequence (P37231 238-503 limits assumed): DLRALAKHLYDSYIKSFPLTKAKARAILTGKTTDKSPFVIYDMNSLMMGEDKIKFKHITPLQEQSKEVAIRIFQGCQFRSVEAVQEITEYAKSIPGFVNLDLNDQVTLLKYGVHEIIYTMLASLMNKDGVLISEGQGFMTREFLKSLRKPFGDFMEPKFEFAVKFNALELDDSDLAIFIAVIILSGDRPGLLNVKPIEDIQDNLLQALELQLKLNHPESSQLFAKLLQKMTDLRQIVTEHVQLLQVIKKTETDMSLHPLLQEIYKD
Method: The ability of several exemplary compounds of the present invention, shown in Table A, to bind to PPARγ was measured using a commercial binding assay (Invitrogen Corporation, Carlsbad, Calif.) that measures the test compounds ability to bind with PPAR-LBD/Fluormone PPAR Green complex. These assays were performed on three occasions with each assay using four separate wells (quadruplicate) at each concentration of tested compound. The data in Table B are average and SEM of three experiments, each of which were performed in quadruplicate on separate days. […] Compounds were added at the concentrations shown, which range from 0.1-100 micromolar.

| PPARγ ligand binding (Fluormone displacement signal) (PPARγ; compound at 1 μM) | Activation of PPARγ (PPARγ; compound at 3 μM) | Activation of PPARγ (PPARγ; compound at 10 μM) | Activation of PPARγ (PPARγ; compound at 50 μM) | Activation of PPARγ (PPARγ; compound at 100 μM) | Activation of PPARγ (PPARγ; compound at .1 μM) | PPARγ ligand binding (Fluormone displacement signal) (PPARγ; compound at .3 μM) | PPARγ ligand binding (Fluormone displacement signal) (PPARγ; compound at 10 μM) | PPARγ ligand binding (Fluormone displacement signal) (PPARγ; compound at 50 μM) | PPARγ ligand binding (Fluormone displacement signal) (PPARγ; compound at 100 μM) | PPARγ ligand binding (Fluormone displacement signal) (PPARγ; compound at .1 μM) | PPARγ ligand binding (Fluormone displacement signal) (PPARγ; compound at 3 μM) | Activation of PPARγ (PPARγ; compound at .3 μM) | Activation of PPARγ (PPARγ; compound at 1 μM) | Structure (SMILES) | Mean blood pressure, Fasted [1] | Mean blood pressure, Fed [1] | Antihypertensive action (in words) ([1]; hypertension generated by treatment with a glucocorticoid, FIG. 2 and Table C) | Binding to PPARγ (in words) (PPARγ) |
| --- | --- | --- | --- | --- | --- | --- | --- | --- | --- | --- | --- | --- | --- | --- | --- | --- | --- | --- |
| 223 (12) | 228 (6) | 207 (13) | 174 (28) | 170 (35) | 227 (1) | 232 (8) | – | – | – | – | – | – | – | CCc1ccc(C(=O)COc2ccc(CC3SC(=O)NC3=O)cc2)nc1 (centres unmarked) [Compound 1] | 108 | 108 | unexpected antihypertensive action; also recorded: significantly lowered blood pressure | particularly poor binders to PPARγ |
| 203 (15) | 185 (17) | 134 (1) | 88 (6) | – | 226 (17) | 221 (10) | – | – | 77 (7) | – | – | – | – | CCc1ccc(C(=CC(=O)OC)COc2ccc(CC3SC(=O)NC3=O)cc2)nc1 (centres unmarked) [Compound 3] | – | – | – | – |
| 234 (11) | – | – | 122 (21) | – | 236 (13) | – | 200 (8) | – | 91 (11) | – | 224 (15) | 230 (14) | – | CCc1ccc(CCOc2ccc(CC3(C)SC(=O)NC3=O)cc2)nc1 (centres unmarked) [Compound 4] | – | – | – | – |
| 228 (9) | – | – | – | – | – | 230 (10) | 212 (11) | 132 (12) | 106 (7) | 235 (8) | 226 (8) | – | – | CCc1ccc(C(O)COc2ccc(CC3(C)SC(=O)NC3=O)cc2)nc1 (centres unmarked) [Compound 5] | – | – | – | – |
| 233 (11) | – | – | 126 (17) | – | – | 246 (9) | 198 (10) | – | 99 (12) | 246 (7) | 223 (7) | – | – | CCc1ccc(CCOc2ccc(CC3(C)SC(=O)NC3=O)cc2)nc1 (centres unmarked) [Compound 6] | – | – | – | – |
| – | – | – | – | – | – | – | 210 (9) | 144 (15) | 105 (10) | 249 (9) | 237 (7) | 246 (5) | 248 (13) | CCc1ccc(CCOc2ccc(CC3(C)SC(=O)NC3=O)cc2)nc1 (centres unmarked) [Compound 7] | – | – | – | – |
| – | – | – | – | 186 (16) | 237 (6) | – | 233 (7) | 199 (15) | – | – | 241 (10) | 243 (5) | 239 (5) | CCc1ccc([C@@H](O)COc2ccc(CC3(C)SC(=O)NC3=O)cc2)nc1 (some centres unmarked) [Compound 8] | – | – | – | – |
| – | – | – | 189 (19) | 164 (20) | 237 (5) | – | 234 (12) | – | – | – | 233 (9) | 237 (4) | 239 (13) | CCc1ccc([C@H](O)COc2ccc(CC3(C)SC(=O)NC3=O)cc2)nc1 (some centres unmarked) [Compound 9] | – | – | – | – |
| – | – | 219 (5) | – | – | 245 (2) | – | – | 126 (3) | 93 (3) | – | 234 (3) | 239 (2) | 240 (2) | CCc1ccc(C(=O)COc2ccc(CC3(C)SC(=O)NC3=O)cc2)nc1 (centres unmarked) [Compound 10] | – | – | – | – |
| 232 (12) | – | – | 128 (30) | – | – | 227 (9) | 165 (10) | – | 78 (3) | 230 (12) | 229 (10) | – | – | CCc1ccc(C(=CC(=O)OC)COc2ccc(CC3SC(=O)NC3=O)cc2)nc1 (centres unmarked) [Compound 11] | – | – | – | – |
| – | – | – | 80 (2) | – | – | – | 112 (12) | – | 85 (3) | 243 (3) | 155 (8) | 222 (4) | 198 (6) | CCc1ccc(C(COc2ccc(CC3SC(=O)NC3=O)cc2)CC(=O)OC)nc1 (centres unmarked) [Compound 12] | – | – | – | – |
| – | 230 (13) | – | 148 (23) | 108 (5) | – | 243 (10) | 204 (12) | – | – | 244 (9) | – | – | 229 (20) | CCc1ccc(C(=CCO)COc2ccc(CC3SC(=O)NC3=O)cc2)nc1 (centres unmarked) [Compound 13] | – | – | – | – |
| – | – | – | – | – | – | – | – | – | – | – | – | – | – | C[C@H]1C[C@@H]2[C@H]([C@@H](O)C[C@@]3(C)[C@H]2CC[C@]3(O)C(=O)CO)[C@@]2(C)C=CC(=O)C=C12 [Medrol, methylprednisolone, reference compound] | 122 | 123 | – | – |

| Structure (SMILES) | PPARγ ligand binding (Fluormone displacement signal) (PPARγ; compound at 1 μM) | Activation of PPARγ (PPARγ; compound at 3 μM) | Activation of PPARγ (PPARγ; compound at 10 μM) | Activation of PPARγ (PPARγ; compound at 50 μM) | Activation of PPARγ (PPARγ; compound at 100 μM) | Activation of PPARγ (PPARγ; compound at .1 μM) | PPARγ ligand binding (Fluormone displacement signal) (PPARγ; compound at .3 μM) | PPARγ ligand binding (Fluormone displacement signal) (PPARγ; compound at 10 μM) | PPARγ ligand binding (Fluormone displacement signal) (PPARγ; compound at 50 μM) | PPARγ ligand binding (Fluormone displacement signal) (PPARγ; compound at 100 μM) | PPARγ ligand binding (Fluormone displacement signal) (PPARγ; compound at .1 μM) | PPARγ ligand binding (Fluormone displacement signal) (PPARγ; compound at 3 μM) | Activation of PPARγ (PPARγ; compound at .3 μM) | Activation of PPARγ (PPARγ; compound at 1 μM) | Mean blood pressure, Fasted [1] | Mean blood pressure, Fed [1] | Antihypertensive action (in words) ([1]; hypertension generated by treatment with a glucocorticoid, FIG. 2 and Table C) | Binding to PPARγ (in words) (PPARγ) |
| --- | --- | --- | --- | --- | --- | --- | --- | --- | --- | --- | --- | --- | --- | --- | --- | --- | --- | --- |
| CCc1ccc([C@@H](O)COc2ccc(CC3SC(=O)NC3=O)cc2)nc1 (some centres unmarked) [Compound 2] | 238 (12) | 236 (13) | – | – | – | – | 233 (15) | 223 (11) | 162 (8) | 136 (11) | 231 (15) | – | – | – | – | – | – | particularly poor binders to PPARγ; also recorded: PPARγ-sparing compound |
